Activity calls are given as the source filed them. No rule for the calls is given here.
Test: blockers of mitochondrial fusion, WT vs mutant – cell-based, chemical genetic, wild-type and mutant, confirmation (AID 1361)
Details: Cell-based mitochondrial fusion phenotype, imaging
[1] = mutant cells, measured here: mutant cell line IC50

For `N#Cc1nc(-c2ccco2)oc1NCc1ccc(F)cc1`, the IC50 (WT cells) was > 25 µM (inactive) and the IC50 [1] was greater than 25 µM.

For `Cc1cc(=O)[nH]c(SCC(N)=O)c1C#N`, the IC50 (WT cells) was > 25 µM (inactive) and the IC50 [1] was greater than 25 µM.

Work on `CCn1cc(C(=O)OCC(=O)c2cc(C)n(-c3cccc(C(F)(F)F)c3)c2C)c(=O)c2ccc(C)nc21` yielded an IC50 (WT cells) of 11.1 µM and an IC50 [1] greater than 25 µM.

In the case of `CC(C)(O)[C@H]1O[C@H]2CC[C@@]3(C)[C@@](O)(CC[C@H]4Cc5c([nH]c6ccccc56)[C@@]43C)C2=CC1=O`, the IC50 (WT cells) is reported as 11.2 µM and the IC50 [1] is reported as greater than 25 µM.

In the case of `CC1(C)CC(=O)C2=C(C1)N(c1ccc(F)cc1)C(=O)C2(O)C(F)(F)F` (configuration not stated), the IC50 (WT cells) is reported as > 25 µM (inactive) and the IC50 [1] is reported as greater than 12.5 µM.

In the case of `O=C(OCC(=O)N1CCN(C(=O)c2ccco2)CC1)c1cn(-c2ccccc2)nc1-c1ccccc1`, the IC50 (WT cells) is reported as 13.1 µM and the IC50 [1] is reported as 16.3 µM.

For `CCCCc1nc2ccccc2c(=O)n1-c1ccc(Cl)cc1[N+](=O)[O-]`, the IC50 (WT cells) was > 25 µM (inactive) and the IC50 [1] was greater than 25 µM.

Work on `CCOC(=O)C1=C(C)NC(=S)NC1c1ccc(-c2ccc(Cl)cc2)o1` (configuration not stated) yielded an IC50 (WT cells) of 10.4 µM and an IC50 [1] of 24.2 µM.

For `Cc1ccc2c(CSc3nnc(C4CC4)n3N)cc(=O)oc2c1C`, the IC50 (WT cells) was > 25 µM (inactive) and the IC50 [1] was greater than 25 µM.

`Cc1ccccc1C(=O)Oc1ccc(Sc2ccc(O)cc2)cc1` gave an IC50 (WT cells) of 8.72 µM and an IC50 [1] greater than 25 µM.

For `N#Cc1c(-c2cccnc2)c2c([nH]c1=S)CCCC2`, the IC50 (WT cells) was > 25 µM (inactive) and the IC50 [1] was greater than 25 µM.

For `Cc1nn(Cc2ccccc2Cl)c(C)c1NC(=O)NC12CC3CC(CC(C3)C1)C2`, the IC50 (WT cells) was > 25 µM (inactive) and the IC50 [1] was greater than 25 µM.

In the case of `O=C(CCN1C(=O)/C(=C/c2cccs2)SC1=S)NC1=NCCS1`, the IC50 (WT cells) is reported as 12.5 µM and the IC50 [1] is reported as greater than 25 µM.

For `CS(=O)(=O)c1nc2ccccc2n1Cc1ccccc1`, the IC50 (WT cells) was > 25 µM (inactive) and the IC50 [1] was greater than 25 µM.

For `COc1ccc(CNC(=O)C2CC(=O)N(c3ccc(OCC(=O)N4C(C)CCCC4C)cc3)C2)cc1` (configuration not stated), the IC50 (WT cells) was > 25 µM (inactive) and the IC50 [1] was greater than 25 µM.

In the case of `Cc1ccc2nc(N/N=C/c3ccccc3F)nc(-c3ccccc3)c2c1`, the IC50 (WT cells) is reported as 7.54 µM and the IC50 [1] is reported as 16.6 µM.

For `CCOc1ccccc1N1CCN(C(=O)Nc2ccc(Cl)c(Cl)c2)CC1`, the IC50 (WT cells) was 20.9 µM (inactive) and the IC50 [1] was greater than 12.5 µM.

Work on `COCCn1c(SCc2nnc(-c3ccccc3)o2)nc2sc3c(c2c1=O)CCC3` yielded an IC50 (WT cells) of 8.38 µM and an IC50 [1] of 17.6 µM.

For `Cc1ccc(C(=O)NCc2ccc(N3CCN(C(=O)OC(C)(C)C)CC3)cc2)cc1`, the IC50 (WT cells) was > 25 µM (inactive) and the IC50 [1] was greater than 25 µM.

In the case of `CCCCN(CCCC)C1=Nc2ccccc2N/C1=C(/C#N)C(=O)OCC`, the IC50 (WT cells) is reported as 6.94 µM and the IC50 [1] is reported as greater than 25 µM.

`O=C(N/C=N/OCc1ccc(Cl)cc1Cl)NOCc1ncc(C(F)(F)F)cc1Cl` gave an IC50 (WT cells) of 16 µM and an IC50 [1] greater than 25 µM.

Compound `Clc1ccccc1Cn1c(/C=C/c2ccco2)nc2ccccc21` has an IC50 (WT cells) of 11.6 µM and an IC50 [1] of 25 µM.

`COC(=O)C1=C(Nc2ccc(C)cc2)C=C(C)C(C(=O)OC)C1c1ccc(F)cc1` (configuration not stated) gave an IC50 (WT cells) of 6.62 µM and an IC50 [1] greater than 25 µM.

Work on `CCOC(=O)c1c(N)sc(C(O)(C(F)(F)F)C(F)(F)F)c1-c1ccccc1` yielded an IC50 (WT cells) of 20.3 µM and an IC50 [1] greater than 25 µM.

With `CCOC(=O)c1c(C)n(-c2ccc(C)cc2)c2ccc(OCC(O)CNCC3CCCO3)cc12` (configuration not stated) the IC50 (WT cells) was 15 µM and the IC50 [1] was greater than 25 µM.

Work on `CC12CC3(C)CC(C)(C1)CC(C(=O)NC(=S)NC(C)(C)C)(C2)C3` yielded an IC50 (WT cells) of 11.6 µM and an IC50 [1] greater than 25 µM.

For `CCOc1ccc(NC(=S)N(CCc2c(C)[nH]c3ccc(C)cc23)Cc2ccco2)cc1`, the IC50 (WT cells) was 6.2 µM and the IC50 [1] was greater than 25 µM.

`CCOC(=O)c1c(C)[nH]c(C)c1C(=O)COC(=O)/C=C/c1cccc(C(F)(F)F)c1` gave an IC50 (WT cells) of 20.6 µM and an IC50 [1] greater than 25 µM.

In the case of `C=CCn1c(COc2ccccc2-c2ccccc2)nnc1SCC(=O)NC(=O)NCc1ccco1`, the IC50 (WT cells) is reported as > 25 µM (inactive) and the IC50 [1] is reported as greater than 25 µM.

`Clc1ccc2c(c1)C(c1ccccc1Cl)=NCc1nnc(N3CCN(CCOc4ccccc4)CC3)n1-2` gave an IC50 (WT cells) of 23.7 µM and an IC50 [1] greater than 25 µM.

`CCCCCOc1ccc(CSCCNC(=S)Nc2ccccc2)cc1` showed an IC50 (WT cells) of 5.86 µM and an IC50 [1] greater than 25 µM.

With `Cc1c(C)c2cc(Cl)c(O)c(CN3CCCC(C)C3)c2oc1=O` (configuration not stated) the IC50 (WT cells) was > 25 µM (inactive) and the IC50 [1] was greater than 25 µM.

Work on `COC(=O)CNC(c1ccccc1)c1cc(C)ccc1NC(=O)c1cccc(Cl)c1` (configuration not stated) yielded an IC50 (WT cells) of 9.38 µM and an IC50 [1] greater than 25 µM.

`CCCCCCn1c(N2CCN(c3ccccc3)CC2)nc2c1c(=O)n(C)c(=O)n2C` showed an IC50 (WT cells) of 19.9 µM and an IC50 [1] greater than 25 µM.

With `CC(C)N=c1scc(-c2cccs2)n1/N=C/c1ccc(O)c(O)c1O` the IC50 (WT cells) was > 25 µM (inactive) and the IC50 [1] was greater than 25 µM.

Work on `CCCCn1c(N2CCC(Cc3ccccc3)CC2)nc2c1c(=O)[nH]c(=O)n2C` yielded an IC50 (WT cells) of 13.7 µM and an IC50 [1] greater than 25 µM.

For `O=C(N1CCOCC1)N1CCN(C(c2ccccc2)c2ccccc2)CC1`, the IC50 (WT cells) was > 25 µM (inactive) and the IC50 [1] was greater than 25 µM.

`Cc1cc(Cl)ccc1NC(=S)NCCC(c1ccccc1)c1ccccc1` gave an IC50 (WT cells) of 4.91 µM and an IC50 [1] greater than 25 µM.

Work on `COCCN(C(=S)Nc1c(C)cc(C)cc1C)C(C)c1cccs1` (configuration not stated) yielded an IC50 (WT cells) of 23.3 µM and an IC50 [1] greater than 25 µM.

In the case of `O=C(Nc1ccc(C(O)(C(F)(F)F)C(F)(F)F)cc1)c1ccc(Cl)c([N+](=O)[O-])c1`, the IC50 (WT cells) is reported as 18.8 µM and the IC50 [1] is reported as greater than 25 µM.

`COc1ccc(CNC(=O)[C@H](C)[C@@H]2C[C@@]2(C)[C@@H](NC(=O)OCc2ccccc2)c2ccccc2)cc1OC` showed an IC50 (WT cells) of 22.6 µM and an IC50 [1] greater than 25 µM.

From PubChem BioAssay AID1361 (SRMLSC, 2008)
